Measured values taken from US20220175766A1, “COMPOSITIONS AND METHODS OF TREATMENT” (GB004, Inc., priority 2019, published 2022).
Like-named read-outs stand apart in the source and are kept apart here.

Tests used:
[1] = type: physicochemical
Protocol: Binary mixtures of Compound 1 HCl salt (prepared according to Example 2.1) and excipient were stored at 40° C. and 75% RH for 4 weeks and analysed at weekly intervals for appearance, moisture content (KF) and HPLC purity of Compound 1, with the excipients studied being microcrystalline cellulose, silicified microcrystalline cellulose, lactose, crospovidone, croscarmellose sodium, sodium starch glycolate, magnesium stearate, sodium stearyl fumarate, red iron oxide, blue #2, eudragit, polyvinylpyrrolidone, HPMC-AS, anhydrous citric acid and HPMC.

[2] = Compound 1 pH-solubility at 22° C.; type: physicochemical; settings: thermodynamic from solid
Source text: The solubility of Compound 1 at various pH's was investigated.

[3] = Dispersion of Compound 1⋅HCl in stirred water with or without poloxamer 188; type: physicochemical; settings: 0.25 g in 50 mL water, in the presence of poloxamer 188 (0.25 g) vs without
Protocol: Compound 1⋅HCl (0.25 g) was added to each of two stirred beakers containing water (50 mL), one also containing poloxamer 188 (0.25 g). The dispersion of Compound 1 throughout the beaker was higher in the presence of Poloxamer 188.

CC(C)(C)OC(=O)N1CCN(Cc2ccn(Cc3ccc(Cl)cc3)c(=O)c2O)CC1.Cl [Compound 1 HCl salt]
Stability on storage ([1]; 40° C. and 75% RH for 4 weeks): stable | Appearance of binary mixture ([1]; binary mixture with citric acid, 40° C. and 75% RH, after 1 week): liquefied | API purity by HPLC ([1]; binary mixture with citric acid, 40° C. and 75% RH, after 4 weeks): 34.1% | Total impurities ([1]; binary mixture with microcrystalline cellulose, 40° C. and 75% RH, after 4 weeks): 0.51% | Total impurities ([1]; binary mixture with silicified microcrystalline cellulose, 40° C. and 75% RH, after 4 weeks): 0.69% | solubility ([2]; citrate buffer, aqueous buffer, pH 3 (Citrate 25 mM, l = 0.1), pH 3.0, 22° C.): 600 µg/mL | solubility ([2]; simulated gastric fluid, 0.1M HCl, pH 1.3, 22° C.): 1810 µg/mL | solubility ([2]; Water (1 mg/ml load), pH 3.1, 22° C.): 550 µg/mL | solubility ([2]; Water (5 mg/ml load), pH 2.2, 22° C.): 2070 µg/mL | Dispersion of Compound 1 throughout the beaker [3]: higher
